Test system: HeLa
Assay: Cytotoxicity in HeLa S3 cells (human uterocervical carcinoma) was determined
Format: functional, cell-based
Conditions: Homo sapiens, HeLa; read-out: IC50

SMILES	IC50 [µM]
CC(=O)OC1(CC#Cc2ccccc2)C=CC(=O)C1=Cc1ccccc1 (stereo unspecified)	0.024
O=C1CC(SCCO)C(O)(CC#Cc2ccccc2)/C1=C/c1ccccc1 (stereo unspecified)	0.021
O=C1C=CC(O)(CC#Cc2ccccc2)/C1=C/c1ccccc1 (stereo unspecified)	0.015
O=C1C=CC(CC#Cc2ccccc2)(OC2CCCCO2)/C1=C/c1ccccc1 (stereo unspecified)	1.1

Same assay, conditions: hela

SMILES	IC50 [µM]
O=C1CC(SCCO)/C(=C\C#Cc2ccccc2)C1C(SCCO)c1ccccc1 (stereo unspecified)	> 1000
O=C1CC(SCCO)/C(=C/C#Cc2ccccc2)C1C(SCCO)c1ccccc1 (stereo unspecified)	> 1000
